Test results reported in PMC8396812, “Aphid Odorant-Binding Protein 9 Is Narrowly Tuned to Linear Alcohols and Aldehydes of Sixteen Carbon Atoms” (Insects, 2021).
pKd: −log10 of the molar value.

Molecular target: T1, ApisOBP9 (Acyrthosiphon pisum, UniProt A0A8R1TD77)
T1 construct: pET30, E. coli, N-terminal His-tag removed with enterokinase
T1 sequence (A0A8R1TD77 25-165): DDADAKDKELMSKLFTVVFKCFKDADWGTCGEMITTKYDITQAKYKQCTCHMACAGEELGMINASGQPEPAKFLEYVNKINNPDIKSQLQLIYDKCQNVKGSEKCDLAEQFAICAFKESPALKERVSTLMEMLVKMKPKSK
Test: competitive displacement of 1-NPN fluorescence
Assay type: binding
Details: 2 μM protein, 2 μM 1-NPN, 50 mM Tris-HCl pH 7.4, room temperature

In the case of `CC1=C(C=O)C(C)(C)CC=C1` [safranal], the KD was “with only coniferyl aldehyde and safranal showing moderate affinities”.
For `COc1cc(/C=C/C=O)ccc1O` [coniferyl aldehyde], the KD was “with only coniferyl aldehyde and safranal showing moderate affinities”.
For `C=CC(=C)CC/C=C(\C)CCC=C(C)C` [(E)-β-farnesene], the KD was “in our hands, ApisOBP9 showed some affinity to EBF”.

Molecular target: T1, ApisOBP9
Test: biochemical
Parameters: competitive displacement of 1-NPN fluorescence from recombinant OBP9, Kd calculated from IC50
Details: read-out: ApisOBP9-WT
Experimental: Affinity constants were evaluated by the competitive fluorescent method, using a PerkinElmer FL 6500 spectrofluorometer in a right-angle configuration at room temperature and quartz cuvettes with a 1 cm path. The fluorescent probe N-phenyl-1-naphthylamine (1-NPN) was excited at 337 nm, and emission spectra were recorded between 380 and 450 nm. Binding of 1-NPN was evaluated by adding aliquots of a 1 mM methanol solution to reach final concentrations of 2–16 μM, to a 2 μM solution of the protein in 50 mM Tris-HCl buffer, pH 7.4. Intensity values were recorded at the peak maximum, around 412 nm. The dissociation constant of the complex protein/1-NPN was calculated using Prism software (https://www.graphpad.com/scientific-software/prism/, accessed on 10 February 2021). The affinities of other ligands were evaluated in competitive binding assays by adding aliquots of 1 mM methanol solutions of each ligand to final concentration values of 2 to 16 μM, to a mixture of the protein and 1-NPN, both at the concentration of 2 μM in 50 mM Tris-HCl buffer, pH 7.4. Dissociation constants of ligands were calculated from the corresponding [IC]50 values (the concentration of each ligand halving the initial value of fluorescence), using the equation:KD = [IC]50/1 + [1-NPN]/K1-NPN where [1-NPN] is the concentration of free 1-NPN, and K1-NPN the dissociation constant of the complex protein/1-NPN. All results of the binding experiments are reported in Figure 2 and in Supplementary Figures S1–S4, including those performed on a mutant (Lys37Leu), designed on the results obtained with the wild-type ApisOBP9. First, we measured the affinity of the protein to the fluorescent probe N-phenyl-1-naphthylamine (1-NPN), the most widely used with insect OBPs.

Going from `CCCC/C=C\CCCCCCCCCCCC=O` [(Z)-13-Octadecenal] to `CCCC/C=C\CCCCCCCCCC=O` [Z11-hexadecenal], the pKd rises from 5.64 to 5.94 (0.30 log units).

Going from `CCCC/C=C\CCCCCCOC(C)=O` [(Z)-7-Dodecenyl acetate] to `CCCC/C=C\CCCCCCCC=O` [(Z)-9-Tetradecenal], the pKd falls from 5.86 to 5.27 (0.59 log units).

`CC1=C(C=O)C(C)(C)CC=C1` [safranal] and `COc1cc(/C=C/C=O)ccc1O` [coniferyl aldehyde] are within 0.2 log units of each other in pKd: 4.94 for the first, 5.10 for the second.

First: CCCCCCCCCCCCCCO [1-Tetradecanol]
Second: CCCCCCCCCCCCCCCCO [1-hexadecanol]
The pKd of the first is 0.25 log units lower: 5.47 for the first, 5.72 for the second. The second binds more tightly here.

`CCCCCC/C=C\CCCCCCCC=O` [Z9-hexadecenal] and `CCCC/C=C\CCCCCCCCCCO` [Z11-1-hexadecenol] are within 0.2 log units of each other in pKd: 5.84 for the first, 5.86 for the second.

Going from `CCCCCCCCCC(=O)O` [Decanoic acid] to `CCCCCCCCCCCCO` [1-Dodecanol], the pKd rises from 4.84 to 5.42 (0.58 log units). The second binds more tightly here.
